“Also recorded” adds a separate entry of the source. Marks after values point to notes of the source that are not given here.
What was measured:
CCR4 = biological target: T1, CCR4 (Homo sapiens, UniProt P51679); test: Ligand binding to CCR4
T1 sequence (P51679 1-360): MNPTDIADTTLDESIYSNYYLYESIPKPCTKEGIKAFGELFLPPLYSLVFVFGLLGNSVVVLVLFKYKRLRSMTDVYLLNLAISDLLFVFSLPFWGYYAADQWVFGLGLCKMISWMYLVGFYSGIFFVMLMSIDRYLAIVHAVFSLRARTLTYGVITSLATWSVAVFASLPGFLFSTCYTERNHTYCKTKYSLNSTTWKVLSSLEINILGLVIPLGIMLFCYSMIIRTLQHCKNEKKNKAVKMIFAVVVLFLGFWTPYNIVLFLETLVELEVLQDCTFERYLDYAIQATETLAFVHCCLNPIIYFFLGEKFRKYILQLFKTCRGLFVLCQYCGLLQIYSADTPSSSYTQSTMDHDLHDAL

[1] = APRI and FIB-4 fibrosis scores, post-hoc analysis of Study 202; assay type: in vivo, human
Procedure: Change in score category from baseline (BL) to Weeks 24 and 48 was assessed in patients with non-missing data. Correlations between changes from BL in APRI and FIB-4 scores, and MCP-1 (CCR2 ligand) and sCD14 (inflammatory biomarker) levels were evaluated.

HIV-1 = test: Study 202: virologic response (plasma HIV-1 RNA <50 copies/mL), Snapshot algorithm, ITT; assay type: in vivo, human
CCR3 = biological target: T2, CCR3 (Homo sapiens, UniProt P51677); test: Ligand binding to CCR3
T2 sequence (P51677 1-355): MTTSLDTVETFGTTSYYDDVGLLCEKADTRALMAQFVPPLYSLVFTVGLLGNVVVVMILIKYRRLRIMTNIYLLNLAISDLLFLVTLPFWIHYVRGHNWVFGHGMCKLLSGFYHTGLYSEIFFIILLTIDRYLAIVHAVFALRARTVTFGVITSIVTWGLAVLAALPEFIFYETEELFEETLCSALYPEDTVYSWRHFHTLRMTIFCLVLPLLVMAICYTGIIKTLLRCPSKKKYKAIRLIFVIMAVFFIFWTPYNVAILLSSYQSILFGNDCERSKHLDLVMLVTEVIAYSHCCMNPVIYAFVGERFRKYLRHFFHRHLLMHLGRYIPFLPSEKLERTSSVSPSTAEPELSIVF

CCR2 = biological target: T3, CCR2 (Homo sapiens, UniProt P41597); test: CCR2 receptor occupancy / internalization in PBMCs (monocytes) by flow cytometry; assay type: cell-based
T3 construct: endogenous in cells; host or cells: monocytes within PBMCs from 5 HIV+ and 5 HIV- subjects
T3 sequence (P41597 1-360 isoform P41597-2): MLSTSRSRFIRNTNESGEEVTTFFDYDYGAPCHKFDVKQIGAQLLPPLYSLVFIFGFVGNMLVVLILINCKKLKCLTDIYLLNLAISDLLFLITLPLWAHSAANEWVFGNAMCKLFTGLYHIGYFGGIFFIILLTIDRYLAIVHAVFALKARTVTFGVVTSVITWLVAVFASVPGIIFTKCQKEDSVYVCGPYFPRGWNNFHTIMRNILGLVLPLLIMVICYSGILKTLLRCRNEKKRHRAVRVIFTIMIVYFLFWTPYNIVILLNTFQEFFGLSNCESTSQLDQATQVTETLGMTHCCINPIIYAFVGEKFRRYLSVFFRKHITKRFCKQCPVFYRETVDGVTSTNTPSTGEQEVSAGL
Procedure: The capacity of each drug to inhibit CCR5 or CCR2 internalization was evaluated. Cell-surface expression of CCR5 and CCR2 was assessed by flow cytometry, and fluorescence values were converted into molecules of equivalent soluble fluorescence (MESF).

CCR7 = biological target: T4, CCR7 (Homo sapiens, UniProt P32248); test: Ligand binding to CCR7
T4 sequence (P32248 25-378): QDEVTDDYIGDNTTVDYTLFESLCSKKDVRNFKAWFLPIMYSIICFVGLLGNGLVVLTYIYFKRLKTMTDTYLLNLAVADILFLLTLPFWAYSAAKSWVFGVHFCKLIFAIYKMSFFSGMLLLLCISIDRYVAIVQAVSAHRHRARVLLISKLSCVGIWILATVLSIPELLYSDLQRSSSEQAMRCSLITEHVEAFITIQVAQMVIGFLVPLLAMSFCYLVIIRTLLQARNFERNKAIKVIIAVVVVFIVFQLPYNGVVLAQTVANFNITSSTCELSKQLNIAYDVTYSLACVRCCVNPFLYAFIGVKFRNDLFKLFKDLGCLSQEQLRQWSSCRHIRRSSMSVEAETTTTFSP

[2] = Study 201: safety and tolerability (adverse events); assay type: in vivo, human
Procedure: Subjects were antiretroviral treatment experienced, CCR5 antagonist-naïve, with HIV-1 RNA levels of at least 5000 copies/mL and CD4+ cell counts of at least 250 cells/mm^3. Subjects with HIV-2, hepatitis B virus, or hepatitis C virus co-infection or dual/mixed-tropic HIV-1 were ineligible. Other than their HIV-1 infection, subjects were generally healthy.
In this study, all dose groups received the original formulation (DP3_25), except the 100 mg dose group which received an alternative formulation (DP4_100). […] These subjects were excluded from the efficacy, PK, and PK/PD data, but included in the baseline and safety data. In this study, safety and tolerability were assessed by monitoring AEs, vital signs, ECGs, clinical laboratory values from blood and urine, and physical examinations. Data from all subjects on placebo were pooled for the analyses.

[3] = among subjects on CVC presenting with a AE (n=30)

## CCCCOCCOc1ccc(-c2ccc3c(c2)/C=C(/C(=O)Nc2ccc([S@@+]([O-])Cc4cncn4CCC)cc2)CCCN3CC(C)C)cc1 [CVC, (S)-8-[4-(2-Butoxyethoxy)phenyl]-1-isobutyl-N-(4-{[(1-propyl-1H-imidazol-5-yl)methyl]sulfinyl}phenyl)-1,2,3,4-tetrahydro-1-benzazocine-5-carboxamide]
CCR4
  inhibition of ligand binding (in words): weakly inhibited
[1]; Baseline
  patients in APRI category 0.5-1.5: 14%
  patients in APRI category <0.5: 84%
  patients in APRI category >1.5: 2%
  patients in FIB-4 category 1.45-3.25: 17%
  patients in FIB-4 category <1.45: 82%
  patients in FIB-4 category >3.25: 1%
[1]; Week 24
  APRI: Decreased 1 category from baseline: 14%
  FIB-4: Decreased 1 category from baseline: 13%
  patients in APRI category 0.5-1.5: 7%
  patients in APRI category <0.5: 93%
  patients in FIB-4 category 1.45-3.25: 7%
  patients in FIB-4 category <1.45: 93%
[1]; Week 48
  APRI: Decreased 1 category from baseline: 10%
  FIB-4: Decreased 1 category from baseline: 14%
  patients in APRI category 0.5-1.5: 8%
  patients in APRI category <0.5: 91%
  patients in APRI category >1.5: 1%
  patients in FIB-4 category 1.45-3.25: 5%
  patients in FIB-4 category <1.45: 94%
  patients in FIB-4 category >3.25: 1%
HIV-1; Week 24, CVC 100 mg arm
  HIV-1 RNA ≧50 but <400 copies/mL: (5%)^d
HIV-1; Week 24, CVC 200 mg arm
  HIV-1 RNA ≧400 copies/mL: (7%)
HIV-1; Week 48, CVC 100 mg
  virologic non-response, subgroup with high baseline viral load (≧100,000 copies/mL): 20%
HIV-1; Week 48, CVC 100 mg arm
  Treatment difference from EFV arm: 18%
HIV-1; Week 48, CVC 200 mg
  virologic non-response, subgroup with high baseline viral load (≧100,000 copies/mL): 21%
HIV-1; Week 48, CVC 200 mg arm
  Discontinued study due to AE or death: (2%)
  Treatment difference from EFV arm: 16%
HIV-1; Week 48, both CVC arms
  Week 48 non-response, CVC-treated Black or African American subjects: 8-15%
CCR3
  inhibition of ligand binding (in words): weakly inhibited
CCR2; CCR2, monocytes
  average concentration required to reach >80% receptor occupancy: 1.8 nM
CCR2; PBMCs
  prevention of MCP-1-induced CCR2 internalization (in words): at lower concentrations than BMS-22
CCR2; in the absence of MCP-1, monocytes
  CCR2 cell-surface expression (in words): induced CCR2 internalization and decreased cell-surface expression on monocytes; also recorded: reduced CCR2 expression on monocytes
CCR2; monocytes
  concentration at which saturation of monocyte CCR2 was reached: 6 nM
CCR2; monocytes, at 6 nM (saturation)
  receptor occupancy at 0.006 µM: ~98%
CCR7
  inhibition of ligand binding (in words): did not inhibit
[2]
  treatment-emergent AE: diarrhea: 16.7%
  treatment-emergent AE: fatigue: 11.0%
  treatment-emergent AE: headache: 14.8%
  treatment-emergent AE: nausea: 18.5%
[2]; [3]
  subjects with mild AEs: 80%
  subjects with moderate AEs: 17%
[2]; doses between 25 mg and 150 mg
  tolerability (in words): generally well tolerated
